Measured values reported in EP4610269A1, “UROKINASE PLASMINOGEN ACTIVATOR SURFACE RECEPTOR (UPAR) LIGANDS FOR DIAGNOSTIC OR THERAPEUTIC USE” (3B Pharmaceuticals GmbH, priority 2024, dated 2025).
Like-named read-outs stand apart in the source and are kept apart here. Where a SMILES comes first, the peptide text is derived from it. Bridges are numbered along the chain shown (N, C = ends). Side-chain parts run from the residue outwards. [ ]: non-standard residue; d: D form. The star is where a group is joined. GdDOTA = Gd(III) DOTA conjugate, O=C([O-])CN1CCN(CC(=O)[O-])CCN(CC(=O)*)CCN(CC(=O)[O-])CC1.[Gd+3]; DOTA(Lu) = O=C1CN2CCN3CCN(CC(=O)*)CCN(CC2)CC(=O)[O][Lu]([O]1)[O]C(=O)C3; DOTA = O=C(O)CN1CCN(CC(=O)O)CCN(CC(=O)*)CCN(CC(=O)O)CC1; PEG12 = NCCOCCOCCOCCOCCOCCOCCOCCOCCOCCOCCOCCOCCC(=O)O; Pro(trans-4-F) = O=C(O)[C@@H]1C[C@@H](F)CN1; Hyp = O=C(O)[C@@H]1C[C@@H](O)CN1; Pentanoyl(4-Me) = CC(C)CCC(=O)*; Cit = NC(=O)NCCC[C@H](N)C(=O)O; Api = NC1(C(=O)O)CCNCC1; Nva = CCC[C@H](N)C(=O)O; Hexanoyl = CCCCCC(=O)*; Pentanoyl = CCCCC(=O)*

Columns and labels:
[1] = biological target: T1, uPAR-expressing HEC-265 human endometrial adenocarcinoma cells (Homo sapiens, UniProt Q03405); assay: Competitive FACS binding assay; conditions: pIC50 category of FACS binding
T1 construct: Cell surface uPAR-expressing HEC-265 human endometrial adenocarcinoma cells; host or cells: HEC-265
T1 sequence (Q03405 23-335): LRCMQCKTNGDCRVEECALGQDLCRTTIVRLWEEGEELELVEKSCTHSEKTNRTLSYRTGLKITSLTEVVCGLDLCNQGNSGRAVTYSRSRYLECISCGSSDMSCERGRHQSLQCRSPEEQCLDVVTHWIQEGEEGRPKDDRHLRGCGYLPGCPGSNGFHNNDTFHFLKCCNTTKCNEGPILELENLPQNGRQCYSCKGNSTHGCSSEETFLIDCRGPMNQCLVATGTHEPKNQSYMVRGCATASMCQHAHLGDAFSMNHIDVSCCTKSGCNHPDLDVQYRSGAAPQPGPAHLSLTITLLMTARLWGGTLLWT
Summary of the method: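 HEC-265 cells incubated 1 h at 4 °C with 10 nM biotinylated uPAR peptide tracer plus increasing test compound, then stained with APC-streptavidin on ice. Median APC fluorescence by flow cytometry; 4PL fit gives pIC50.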

human uPAR (uPAR-Fc) = biological target: T2, human uPAR (uPAR-Fc) (Homo sapiens, UniProt Q03405); assay: Surface plasmon resonance (SPR) assay, single cycle kinetics; assay type: binding; conditions: pKD category for uPAR SPR activity assay, uPAR-Fc on Protein A-Chip, 25°C, read-out: pKD CAT (converted)
T2 construct: comprising amino acids Leu23-Arg303 according to UniProt entry Q03405.1; purchased R&D Systems 10378-UK-100
T2 sequence (Q03405 23-303): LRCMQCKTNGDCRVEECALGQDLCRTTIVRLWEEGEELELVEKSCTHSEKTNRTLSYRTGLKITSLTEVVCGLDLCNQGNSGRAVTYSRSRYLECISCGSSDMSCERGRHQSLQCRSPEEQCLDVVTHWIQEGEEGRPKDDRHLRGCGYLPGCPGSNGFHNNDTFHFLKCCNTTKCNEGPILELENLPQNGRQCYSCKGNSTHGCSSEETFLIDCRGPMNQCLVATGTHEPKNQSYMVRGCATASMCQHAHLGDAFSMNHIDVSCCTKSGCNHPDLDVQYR
Summary of the method: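 uPAR-Fc (Leu23-Arg303 extracellular domains, human IgG1 Fc) captured on Protein A chip to ~2000 RU; single-cycle kinetics at 25°C in HEPES running buffer pH 7.4 with 0.1% DMSO. KD from double-referenced sensorgrams fitted to 1:1 Langmuir model, reported as pKD.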

[2] = Plasma stability assay (mouse plasma); assay type: in vitro ADME; conditions: 37°C, LC-MS quantification; for remaining at 6 h, 9.8 µM: mouse plasma (sodium citrate 3.7%), read-out: % intact compound remaining after 6h incubation Mouse plasma; for % intact compound remaining after 6h incubation Mouse plasma: mouse plasma (sodium citrate)
Protocol: In order to determine the stability of selected compounds of the invention in human and mouse plasma, a plasma stability assay was carried out. Such plasma stability assay measures degradation of compounds of the present invention in blood plasma. This is an important characteristic of a compound as compounds, with the exception of pro-drugs, which rapidly degrade in plasma, generally show poor in vivo efficacy. […] The stability is sufficient for the diagnostic, therapeutic and theragnostic use of these compounds according to the present invention.
The plasma stability samples were prepared by spiking 50 µl plasma aliquots (all sodium citrate 3.7%) with 1 µl of a 0.5 mM compound stock solution in DMSO. After vortexing the samples were incubated in a Thermomixer at 37°C for 0 and 6 hours. After incubation the samples were stored on ice until further treatment. All samples were prepared in duplicates.
A suitable internal standard was added to each sample (1 µl of a 0.5 mM stock solution in DMSO). Protein precipitation was performed using two different methods depending on the compound conditions as indicated in Table 13. • A) 250 µl of acetonitrile containing 1% trifluoroacetic acid was added. After incubation at room temperature for 30 min the precipitate was separated by centrifugation and 150 µl of the supernatant was diluted with 150 µl of 1% aqueous formic acid. • B) 150 µl of a zinc sulphate precipitation agent containing 78% 0.1 M zinc sulphate and 22% acetonitrile was added. After incubation at room temperature for 30 min the precipitate was separated by centrifugation. To 100 µl of the supernatant 10 µl of 1% formic acid was added followed by further incubation at 60°C for 10 min to complete the formation of the zinc chelate, if the compound contains a free DOTA moiety.
The determination of the analyte in the clean sample solutions was performed on an Agilent 1290 UHPLC system coupled to an Agilent 6530 Q-TOF mass spectrometer. The chromatographic separation was carried out on a Phenomenex BioZen XB-C18 HPLC column (50 x 2 mm, 1.7 µm particle size).
Two different elution gradients were applied using a mixture of 0.1% formic acid in water as eluent A and acetonitrile as eluent B: • A) 2% B to 41% in 7 min, 800 µl/min, 40°C. • B) 5% B to 50% B in 6 min, 800 µL/min, 40°C.
Mass spectrometric detection was performed in positive ion ESI mode by scanning the mass range from m/z 50 to 3000 with a sampling rate of 2 / sec.
From the mass spectrometric raw data the ion currents for the double or triple charged monoisotopic signal was extracted for both, the compound and the internal standard.
Quantitation was performed by external matrix calibration with internal standard using the integrated analyte signals.
Additionally, recovery was determined by spiking a pure plasma sample that only contained the internal standard after treatment with a certain amount of the compound.
Carry-over was evaluated by analysis of a blank sample (20% acetonitrile) after the highest calibration sample.
The result is stated as "% intact compound remaining after 6 h incubation" and means that from the amount of material at the start of the experiment the stated percentage is detected as unchanged material at the end of the experiment by LC-MS quantification. Since all compounds are more than 50% intact after 6 h they are considered as stable enough for diagnostic and therapeutic applications. Table 13: Results of the plasma stability assay

Molecule	IC50 [1] [nM]	Kd (human uPAR (uPAR-Fc)) [nM]	remaining at 6 h, 9.8 µM [2] [%]	Kd (human uPAR (uPAR-Fc); single cycle kinetics) [nM]	pIC50 CAT [1]	% intact compound remaining after 6h incubation Mouse plasma [2] [%]
CC[C@H](C)[C@@H]1NC(=O)[C@@H](C)NC(=O)[C@@H]2CCCN2C(=O)[C@H](Cc2ccccc2)NC(=O)[C@H](Cc2ccc(O)cc2)NC(=O)[C@H](CCCCNC(=O)CN2CCN(CC(=O)O)CCN(CC(=O)O)CCN(CC(=O)O)CC2)NC(=O)[C@H](CCCNC(=N)N)NC(=O)[C@@H](NC(=O)CCC(C)C)CSSC[C@@H](C(N)=O)NC(=O)[C@H](CC(C)C)NC1=O [UPAR-176, iHex-[Cys-Arg-Lys(DOTA)-Tyr-Phe-Pro-ala-Ile-Leu-Cys]-NH2] ({Pentanoyl(4-Me)}-CRK(DOTA)YFP[dA]ILC-NH2; disulfide 1-10)	≤ 10	< 1.58	57	–	–	–
CC[C@H](C)[C@@H]1NC(=O)[C@@H](C)NC(=O)[C@@H]2CCCN2C(=O)[C@H](Cc2ccccc2)NC(=O)[C@H](Cc2ccc(O)cc2)NC(=O)[C@H](CCC(N)=O)NC(=O)[C@H](CCCNC(N)=O)NC(=O)[C@@H](NC(=O)[C@H](CC(C)C)NC(C)=O)CSSC[C@@H](C(N)=O)NC(=O)[C@H](CC(C)C)NC1=O [UPAR-418, Ac-Leu-[Cys-Cit-Gln-Tyr-Phe-Pro-ala-Ile-Leu-Cys]-NH2] (Ac-LC[Cit]QYFP[dA]ILC-NH2; disulfide 2-11)	≤ 10	–	85	< 1.58	–	–
iHex-[Cys-Lys(LuDOTA)-Gln-Tyr-Phe-Pro-ala-Ile-Leu-Cys]-NH2 ({Pentanoyl(4-Me)}-CK(DOTA(Lu))QYFP[dA]ILC-NH2; disulfide 1-10 (inferred); not fully specified) [UPAR-408]	–	–	–	–	A (pIC50 values ≥8.0)	75
iHex-[Cys-Arg-Gln-Tyr-Phe-Pro-Apc(GdDOTA)-Ile-Leu-Cys]-NH2 ({Pentanoyl(4-Me)}-CRQYFP[Api](GdDOTA)ILC-NH2; disulfide 1-10 (inferred); not fully specified) [UPAR-457]	–	–	–	–	A (pIC50 values ≥8.0)	64
CCCCC(=O)N[C@H]1CSSC[C@@H](C(N)=O)NC(=O)[C@H](CCC)NC(=O)[C@H]([C@@H](C)CC)NC(=O)[C@@H]2C[C@@H](O)CN2C(=O)[C@@H]2CCCN2C(=O)[C@H](Cc2ccccc2)NC(=O)[C@H](Cc2ccc(O)cc2)NC(=O)[C@H](CCCCNC(=O)CCOCCOCCOCCOCCOCCOCCOCCOCCOCCOCCOCCOCCNC(=O)CN2CCN(CC(=O)O)CCN(CC(=O)O)CCN(CC(=O)O)CC2)NC(=O)[C@H](CCCNC(N)=O)NC1=O [UPAR-200, Pent-[Cys-Cit-Lys(DOTA-PEG12)-Tyr-Phe-Pro-Hyp-Ile-Nva-Cys]-NHz] (Pentanoyl-C[Cit]K([PEG12-DOTA])YFP[Hyp]I[Nva]C-NH2; disulfide 1-10)	≤ 10	< 1.58	> 95	–	–	–
CCCCCC(=O)N[C@@H](CC(=O)O)C(=O)N[C@@H](CC(C)C)C(=O)N[C@H]1CSSC[C@@H](C(N)=O)NC(=O)[C@H](CC(C)C)NC(=O)[C@H]([C@@H](C)CC)NC(=O)[C@H](C)NC(=O)[C@@H]2CCCN2C(=O)[C@H](Cc2ccccc2)NC(=O)[C@H](Cc2ccc(O)cc2)NC(=O)[C@H](CCCCNC(=O)CN2CCN(CC(=O)O)CCN(CC(=O)O)CCN(CC(=O)O)CC2)NC(=O)[C@H](CCCNC(=N)N)NC1=O [UPAR-427, Hex-Asp-Leu-[Cys-Arg-Lys(DOTA)-Tyr-Phe-Pro-Ala-Ile-Leu-Cys]-NH2] (Hexanoyl-DLCRK(DOTA)YFPAILC-NH2; disulfide 3-12)	≤ 10	–	> 95	< 1.58	–	–
CC[C@H](C)[C@@H]1NC(=O)[C@@H](C)NC(=O)[C@@H]2CCCN2C(=O)[C@H](Cc2ccccc2)NC(=O)[C@H](C)NC(=O)[C@H](CCC(N)=O)NC(=O)[C@H](CCCNC(N)=O)NC(=O)[C@@H](NC(=O)CCC(C)C)CSSC[C@@H](C(N)=O)NC(=O)[C@H](CC(C)C)NC1=O [UPAR-159, iHex-[Cys-Cit-Gln-Ala-Phe-Pro-ala-Ile-Leu-Cys]-NH2] ({Pentanoyl(4-Me)}-C[Cit]QAFP[dA]ILC-NH2; disulfide 1-10)	≥ 126	> 100	–	–	–	–
CCCCC(=O)N[C@H]1CSSC[C@@H](C(N)=O)NC(=O)[C@H](CCC)NC(=O)[C@H]([C@@H](C)CC)NC(=O)[C@@H]2C[C@@H](O)CN2C(=O)[C@@H]2CCCN2C(=O)[C@H](Cc2ccccc2)NC(=O)[C@H](Cc2ccc(O)cc2)NC(=O)[C@H](CCCCNC(=O)CN2CCN(CC(=O)O)CCN(CC(=O)O)CCN(CC(=O)O)CC2)NC(=O)[C@H](CCCNC(=O)CCCC(=O)NCCOCCOCCOCCOCCC(=O)NC(COCCC(=O)NCCOCCOCCOCCOCCOCCOCCOCCOCCOCCOCCOCCOC)(COCCC(=O)NCCOCCOCCOCCOCCOCCOCCOCCOCCOCCOCCOCCOC)COCCC(=O)NCCOCCOCCOCCOCCOCCOCCOCCOCCOCCOCCOCCOC)NC1=O [UPAR-247, Pent-[Cys-Orn(TrisPEG)-Lys(DOTA)-Tyr-Phe-Pro-Hyp-Ile-Nva-Cys]-NH2]	12.6 to 31.6	10 to 100	–	–	–	–
CC[C@H](C)[C@@H]1NC(=O)[C@@H](C)NC(=O)[C@@H]2C[C@@H](F)CN2C(=O)[C@H](Cc2ccccc2)NC(=O)[C@H](Cc2ccc(O)cc2)NC(=O)[C@H](CCC(N)=O)NC(=O)[C@H](CCCNC(N)=O)NC(=O)[C@@H](NC(=O)CCC(C)C)CSSC[C@@H](C(N)=O)NC(=O)[C@H](CC(C)C)NC1=O [UPAR-178, iHex-[Cys-Cit-Gln-Tyr-Phe-4Tfp-ala-Ile-Leu-Cys]-NH2] ({Pentanoyl(4-Me)}-C[Cit]QYF[Pro(trans-4-F)][dA]ILC-NH2; disulfide 1-10)	≤ 10	1.58 to 10	–	–	–	–
CCCCC(=O)N[C@H]1CSSC[C@@H](C(N)=O)NC(=O)[C@H](CCC)NC(=O)[C@H]([C@@H](C)CC)NC(=O)[C@@H]2C[C@@H](O)CN2C(=O)[C@@H]2CCCN2C(=O)[C@H](Cc2ccccc2)NC(=O)[C@H](Cc2ccc(O)cc2)NC(=O)[C@H](CCC(N)=O)NC(=O)CNC1=O [UPAR-236, Pent-[Cys-Gly-Gln-Tyr-Phe-Pro-Hyp-Ile-Nva-Cys]-NH2] (Pentanoyl-CGQYFP[Hyp]I[Nva]C-NH2; disulfide 1-10)	≤ 10	< 1.58	–	–	–	–
CCC[C@@H]1NC(=O)[C@H]([C@@H](C)CC)NC(=O)[C@@H]2C[C@@H](O)CN2C(=O)[C@@H]2CCCN2C(=O)[C@H](Cc2ccccc2)NC(=O)[C@H](Cc2ccc(O)cc2)NC(=O)[C@H](CCC(N)=O)NC(=O)[C@H](CCCNC(=N)N)NC(=O)[C@@H](NC(=O)[C@H](Cc2ccccc2)NC(=O)CN2CCN(CC(=O)O)CCN(CC(=O)O)CCN(CC(=O)O)CC2)CSSC[C@@H](C(N)=O)NC1=O [UPAR-223, DOTA-Phe-[Cys-Arg-Gln-Tyr-Phe-Pro-Hyp-Ile-Nva-Cys]-NH2] ({DOTA}-FCRQYFP[Hyp]I[Nva]C-NH2; disulfide 2-11)	39.8 to 100	10 to 100	–	–	–	–
CC[C@H](C)[C@@H]1NC(=O)[C@@H](C)NC(=O)[C@@H]2CCCN2C(=O)[C@H](Cc2ccccc2)NC(=O)[C@H](Cc2ccc(O)cc2)NC(=O)[C@H](CCC(N)=O)NC(=O)[C@H](C)NC(=O)[C@@H](NC(=O)CCC(C)C)CSSC[C@@H](C(N)=O)NC(=O)[C@H](CC(C)C)NC1=O [UPAR-168, iHex-[Cys-Ala-Gln-Tyr-Phe-Pro-ala-Ile-Leu-Cys]-NH2] ({Pentanoyl(4-Me)}-CAQYFP[dA]ILC-NH2; disulfide 1-10)	≤ 10	< 1.58	–	–	–	–
